Laboratory results: patent US20070025991A1, “Use of antagonists of ghrelin or ghrelin receptor to treat intestinal inflammation” (priority 2003, published 2007)
Non-standard residues stand in square brackets, D forms with d. No end group written: not given here.

Key:
[1] = test system: IL-8 promoter activity in NCM460 cells expressing human GHS-R; experiment: IL-8 promoter-luciferase assay in GHS-R-expressing NCM460 cells; assay type: cell-based
Experimental: Construction of a reporter construct containing 1521 bp (nucleotides −1481 to +40) of the promoter region of human IL-8 gene has been described previously (Warny, M. et al., J. Clin. Invest., 105:1147-1156 (2000)). IL-8 reporter constructs containing mutations in NF-κB, AP-1 or C/EBP sites have been described previously (Zhao, D. et al., J. Biol. Chem., 276:44464-44471 (2001)). […] Firefly and Renilla luciferase activities in cell extracts were measured using Dual-Luciferase Reporter Assay System (Promega). The relative luciferase activity were then calculated by normalizing IL-8 promoter-driven Firefly luciferase activity to control Renilla luciferase activity. […]
NCM460 cells were transiently transfected with pMMP-HA-GHSR or a control plasmid pMMP-LacZ along with IL-8 promoter-luciferase construct plus an internal control construct. The transfected cells were stimulated with ghrelin for 6 hours and the IL-8 promoter activity was measured.
To examine whether ghrelin-induced IL-8 gene expression involves the NF-κB pathway, NCM-GHS-R cells were transiently transfected with IL-8-luciferase construct along with an internal control plasmid. […] IL-8 promoter activity was measured. […]

[2] = test system: ghrelin-induced MAP kinase phosphorylation in IEC-GHS-R cells (rat GHS-R); experiment: MAP kinase phosphorylation in IEC-GHS-R cells (western blot, phospho-MAPK antibody); assay type: cell-based
Experimental: To examine whether an anti-ghrelin IgG or a GHS-R antagonist [D-lys-3]-GHRP-6 blocks ghrelin-mediated responses in experimental colitis, experiments were first performed to test the efficiency of these reagents using in vitro assays. Since ghrelin was previously shown to activate MAP kinase in human HepG2 cells, the effect of the anti-ghrelin antibody or [D-lys-3]-GHRP-6 on ghrelin-induced MAP kinase activation was determined. For these experiments, rat full-length GHS-R cDNA was cloned from rat brain RNA and then subcloned into the retroviral expression vector pMMP. The retroviruses expressing rat GHS-R were used to infect normal rat intestinal epithelial cell line IEC-6 cells (from ATCC). The resulting cell line was named IEC-GHS-R cells.
The response of the IEC-GHS-R to rat ghrelin was determined using this MAP kinase assay. Briefly, serum starved IEC-GHS-R cells were treated with ghrelin (10^−7 M) for various times. […]
To determine the effect of an anti-ghrelin IgG or a GHS-R antagonist [D-lys-3]-GHRP on ghrelin-induced MAPK phosphorylation, IEC-GHS-R cells were pretreated with the anti-ghrelin IgG (2 and 5 μg/ml) or with normal rabbit IgG or [D-lys-3]-GHRP-6 (1-20 nM) for 10 minutes and then treated with rat ghrelin for 5 minutes. MAP kinase phosphorylation was then determined.

[3] = target: T1, GHS-R (Rattus norvegicus, UniProt O08725); details: cited from earlier work
T1 construct: host or cells: CHO cells stably expressing rat GHS-R (inferred, same citation)
T1 sequence (O08725 whole entry): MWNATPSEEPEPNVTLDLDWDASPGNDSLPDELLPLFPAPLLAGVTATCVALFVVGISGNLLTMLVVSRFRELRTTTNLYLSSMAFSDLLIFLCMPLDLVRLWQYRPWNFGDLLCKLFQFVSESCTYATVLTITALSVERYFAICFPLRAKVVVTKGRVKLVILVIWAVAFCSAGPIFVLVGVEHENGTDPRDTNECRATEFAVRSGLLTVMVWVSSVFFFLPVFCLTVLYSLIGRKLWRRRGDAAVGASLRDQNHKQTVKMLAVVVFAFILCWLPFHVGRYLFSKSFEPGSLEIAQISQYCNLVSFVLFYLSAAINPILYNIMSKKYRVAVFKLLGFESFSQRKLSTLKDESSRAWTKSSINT

[4] = test system: food intake; details: food intake induced by centrally injected ghrelin / GHS-R-induced; cited from earlier work
[5] = test system: toxin A-induced intestinal fluid secretion; parameters: species or system mice; details: mouse, in vivo, ip
[6] = test system: NCM460, HT29 and Caco-2 cells; experiment: IL-8 gene expression in colonic epithelial cell lines with endogenous ghrelin receptor; assay type: cell-based, human; details: NCM460, HT29, Caco-2 with very low endogenous ghrelin receptor
[7] = test system: IL-8 secretion in NCM-GHS-R cells; experiment: IL-8 secretion (ELISA) in NCM-GHS-R cells; assay type: cell-based, human; details: serum starved NCM-GHS-R cells, ghrelin 10^−7 M, various times
[8] = target: human GHS-R with HA epitope (pMMP-HA-GHSR), transiently expressed in NCM460 cells (human) (UniProt Q92847); experiment: cell-based or functional assay
human GHS-R with HA epitope (pMMP-HA-GHSR), transiently expressed in NCM460 cells (human), sequence (Q92847 whole entry): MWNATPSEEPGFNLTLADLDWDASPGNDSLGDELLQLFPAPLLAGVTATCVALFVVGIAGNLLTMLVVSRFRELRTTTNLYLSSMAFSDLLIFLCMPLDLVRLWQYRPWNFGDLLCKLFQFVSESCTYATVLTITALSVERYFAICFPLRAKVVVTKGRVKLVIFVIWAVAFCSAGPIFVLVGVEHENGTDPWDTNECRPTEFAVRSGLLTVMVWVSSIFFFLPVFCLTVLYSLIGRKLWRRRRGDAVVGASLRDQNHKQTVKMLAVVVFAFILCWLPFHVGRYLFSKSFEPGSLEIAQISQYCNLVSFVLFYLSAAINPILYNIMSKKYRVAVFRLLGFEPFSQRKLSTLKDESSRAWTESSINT

Compound: O=C(/C=C/c1ccc(O)c(O)c1)OCCc1ccccc1 [CAPE]
- inhibition of ghrelin-induced IL-8 promoter activity ([1]; NCM-GHS-R cells, 10 μg/ml CAPE 30 minutes pretreatment, ghrelin 10^−7 M 4 hours): inhibited ghrelin-induced IL-8 promoter activity

Compound: His-D-Trp-D-Lys-Trp-D-Phe-Lys-NH2 (H[dW][dK]W[dF]K-NH2; N-terminus assumed; SMILES NCCCC[C@H](NC(=O)[C@@H](Cc1ccccc1)NC(=O)[C@H](Cc1c[nH]c2ccccc12)NC(=O)[C@@H](CCCCN)NC(=O)[C@@H](Cc1c[nH]c2ccccc12)NC(=O)[C@@H](N)Cc1c[nH]cn1)C(N)=O) [[D-lys-3]-GHRP-6, commercially available hexapeptide ghrelin receptor (GHS-R) antagonist]
- inhibition of ghrelin-induced MAPK phosphorylation ([2]; pretreated 10 minutes (anti-ghrelin IgG 2 and 5 μg/ml; [D-lys-3]-GHRP-6 1-20 nM), then rat ghrelin 5 minutes): inhibited ghrelin-induced MAPK phosphorylation in a dose-dependent manner
- block of GHS-R-induced calcium response [3]: efficiently block
- block of food intake [4]: efficiently block
- basal fluid secretion in buffer-exposed loops [5]: no significant effect
- inhibition of toxin A-induced fluid secretion [5]: approximately 50%

Compound: ghrelin
- IL-8 gene expression on stimulation [6]: does not mediate IL-8 gene expression
- MAP kinase phosphorylation ([2]; serum starved IEC-GHS-R cells, ghrelin 10^−7 M, various times): induces MAP kinase phosphorylation in a time-dependent manner
- IL-8 secretion in conditioned media [7]: significantly stimulates IL-8 secretion
- stimulation of IL-8 promoter activity ([1]; NCM460 cells transiently transfected with pMMP-HA-GHSR, ghrelin for 6 hours): approximately 8 fold

Compound: ghrelin (species not stated, used on human NCM460-derived cells) (peptide)
- IL-8 promoter activity (luciferase reporter) [8]: 8 fold
